Experimental data as given in article PMC3793977, “High-Throughput Screening (HTS) and Hit Validation to Identify Small Molecule Inhibitors with Activity against NS3/4A proteases from Multiple Hepatitis C Virus Genotypes” (PLoS ONE, 2013).
Several values for one entry are separate records, joined by “and”; a condition that tells them apart may be missing. Equal entries are not always repeated.

Columns and labels:
Format in all cases: biochemical
Trypsin = target: T1, Trypsin (Homo sapiens, UniProt P07477); experiment: Inhibitor selectivity assay, trypsin (fluorometric)
T1 construct: purchased Sigma
Protocol: To test for selectivity, two human serine proteases, Trypsin and Chymotrypsin (Sigma), were tested with the top two hit compounds from HTS using a fluorometric assay. The fluorogenic substrates used in this study were N-benzoyl-L-Arg-7-amido-4-methylcoumarin (Sigma) and N-succinyl-Ala-Ala-Phe-7-amido-4- methylcoumarin (Sigma) for trypsin and chymotrypsin, respectively. All assays were performed in 384-well black plates (Corning) in a total volume of 24 µL of PBS (pH 7.4) buffer containing 0.01% Triton, 0.1 mg/mL BSA, and 2 mM GSH in triplicate. A series of compound concentrations (0 to 200 µM final concentration at 2-fold serial dilution) in 100% DMSO was prepared in a 384-well plate. 20 µL of trypsin (0.01 mg/mL) and chymotrypsin (0.0001 mg/mL) solutions were distributed into wells, and 0.5 µL of varying concentration of compounds were added and incubated for 10 minutes. The enzyme reaction was initiated by adding 5 µL of the substrate (50 µM final concentration), and fluorescence intensity was continuously monitored at excitation/emission wavelengths of 350 nm/460 nm for 10 minutes.

[1] = target: T2, HCV replicon cell lysate sg 1b (NS3) (Hepatitis C virus genotype 1b, UniProt Q9WMX2); experiment: Whole cell lysate inhibition assay, HCV subgenomic replicon 1b
T2 construct: host or cells: Huh7 Clone B cells stably replicating an HCV 1b subgenomic replicon; whole cell lysate
Protocol: (§1) Huh7-1 cells (also known as Huh7/scr cells) were obtained from F.V. Chisari (The Scripps Research Institute, La Jolla, CA). Clone B HCV sub-genotype 1b Huh7 cells were obtained from the NIH AIDS Research and Reference Reagent Program and have been previously described. Huh7 cells stably replicating the sub-genotype 2a HCV JFH-1 replicon were generated as previously described. All cells were cultured in complete Dulbecco’s modified Eagle’s medium (DMEM) supplemented with 10% fetal bovine serum, 100 units/mL penicillin, […] streptomycin, and 2 mM L-glutamine. HCV replicon cells were maintained in 500 µg/mL Geneticin (Invitrogen). For NS3 inhibition analysis, lysates from parental Huh7 cells and HCV replicon cells were harvested on ice in pre-chilled FRET cell lysis buffer (50 mM Tris-HCl, pH 7.5; 150 mM NaCl, 2 mM EDTA, 1.25% Triton X-100). Lysates were brought to room temperature and mixed 1∶1 with 2× FRET assay buffer (100 mM Tris-HCl, pH 7.5, 300 mM NaCl, 4 mM EDTA, 2.5% Triton X-100, 10 mM GSH, and 4 µM substrate). Fluorescence intensity was continuously monitored for 1 hour, and IC50 values were determined in the same way as biochemical assays.

[2] = target: T3, full-length NS3/4A genotype 1b mutant V36M (Hepatitis C virus genotype 1b, UniProt Q9WMX2, V1062M); experiment: Inhibition assay with drug-resistant mutant V36M; details: genotype 1b full-length mutant
T3 construct: wild-type HCV NS3 (HCV polyprotein residues 1027–1657); His-tag (N); made in house
Protocol: The full-length genes of wild-type HCV NS3 (HCV polyprotein residues 1027–1657) with a his-tag at the N-terminus and NS4A (residues 1658–1711) with no tag were cloned, co-expressed, and purified as described. Eight NS3 drug resistant mutants (V36M, V36A, T54A, R155K, R155T, A156T, A156S, and 156V) were generated by mutagenesis using full-length, wild-type NS3-containing recombinant plasmid (pETDuet-1/FL NS3/4A) as a template. The over-expression and purification of all mutants were performed by the same method as the wild-type with minor modifications.
The inhibitory activity of the final hit compounds from HTS were tested against three other HCV genotypes (1a, 2a, and 4d), along with a control (genotype 1b) and five NS3 drug-resistant mutants. Eight full-length NS3 mutants (V36M, R155K, A156T, A156S, 156V, V36A, T54A, and R155T) were generated by mutagenesis and purified, and the three HCV NS3/4A protease genotypes were purchased from Anaspec. Unfortunately the enzyme activities of the three mutants V36A, T54A, and R155T were much less than that of the rest of the mutants and were insufficient for testing, therefore mutant studies were done with the five active mutants. Continuous kinetic assays were performed against all hit compounds in the same way as the wild-type NS3/4A. […]

[3] = target: T4, HCV replicon cell lysate sg 2a (NS3) (Hepatitis C virus genotype 2a, UniProt Q99IB8); experiment: Whole cell lysate inhibition assay, HCV subgenomic replicon 2a
T4 construct: expressed in transfected cells; host or cells: Huh7 cells stably replicating the JFH-1 subgenomic replicon; whole cell lysate
Protocol: as §1

`Cc1cc(NC(=O)Cc2csc(NS(=O)(=O)c3ccccc3)n2)ccc1Br` [Compound 12] was tested, and the inhibition at 100 µM (Trypsin; 100 µM compound, read-out: Trypsin % Inh at 100 µM) was 28%, the IC50 (Trypsin; human trypsin) was greater than 100 µM and the “fold increase of IC50, whole cell lysate 1b vs biochemical assay” value ([1]; sg1b lysate compared to purified enzyme) was 10–20 fold. For the same compound, the IC50 ([1]; whole cell lysate, subgenomic replicon 1b) was < 120 µM and 29.3 µM, the IC50 [2] was no more than 20 µM and the “fold increase of IC50, whole cell lysate 2a vs biochemical assay” value ([3]; sg2a lysate compared to purified enzyme) was 10–20 fold. For the same compound, the IC50 ([3]; whole cell lysate, subgenomic replicon 2a) was < 120 µM and 115 µM.
